According to patent US20110104177A1, “HISTONE DEACETYLASE INHIBITORS, COMBINATION THERAPIES AND METHODS OF USE” (THE JOHNS HOPKINS UNIVERSITY, priority 2006, published 2011):

Experiments:
SIRT1 [1] = target: T1, SIRT1 (Homo sapiens, UniProt Q96EB6); assay: Activity against the SIRT1 enzyme / SIRT1 deacetylase activity; format: biochemical
T1 sequence (Q96EB6 1-747): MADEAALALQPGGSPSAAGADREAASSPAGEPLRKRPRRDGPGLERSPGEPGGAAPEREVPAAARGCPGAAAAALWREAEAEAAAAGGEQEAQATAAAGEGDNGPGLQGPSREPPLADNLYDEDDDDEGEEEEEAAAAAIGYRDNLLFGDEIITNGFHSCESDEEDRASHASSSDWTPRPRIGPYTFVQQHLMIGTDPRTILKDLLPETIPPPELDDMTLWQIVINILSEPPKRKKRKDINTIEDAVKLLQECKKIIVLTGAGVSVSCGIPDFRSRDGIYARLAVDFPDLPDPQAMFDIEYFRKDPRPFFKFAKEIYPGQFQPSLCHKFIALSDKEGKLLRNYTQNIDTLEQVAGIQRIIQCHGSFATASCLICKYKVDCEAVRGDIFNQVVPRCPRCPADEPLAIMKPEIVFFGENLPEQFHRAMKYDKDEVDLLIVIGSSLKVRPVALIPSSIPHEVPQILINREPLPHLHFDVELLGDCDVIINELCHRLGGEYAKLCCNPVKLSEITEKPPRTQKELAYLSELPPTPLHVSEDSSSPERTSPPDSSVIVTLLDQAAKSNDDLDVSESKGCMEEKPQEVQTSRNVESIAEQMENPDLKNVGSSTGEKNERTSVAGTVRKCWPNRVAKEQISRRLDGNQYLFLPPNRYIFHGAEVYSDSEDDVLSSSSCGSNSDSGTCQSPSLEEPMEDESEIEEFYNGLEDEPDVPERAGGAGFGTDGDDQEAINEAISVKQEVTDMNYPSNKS

[2] = tested on: SFRP1, SFRP2, MLH1, CRBP1, E-cadherin genes in RKO cells; assay: RT-PCR re-expression of silenced tumor suppressor genes in RKO cells; format: cell-based, human
Protocol: To inhibit any residual SIRT1 protein, remaining RNAi-expressing cells were treated with 700 μM SPT and control samples were treated with DMSO for 24 hours. […] RKO cells were also treated with 0.5 μM Aza (24 hours), and samples were analyzed as described in FIG. 1A; RT-PCR was performed with intron-spanning primers specific for the two genes. GAPDH was also analyzed as a control. […] Control samples in which no reverse transcriptase was added were analyzed separately, and all were negative for amplification of the indicated genes. […] The level of TSG re-expression induced by Aza treatment or SIRT1 inhibition as described in FIG. 4(A) was compared to levels of expression in HCT116 cells in which the TSGs are basally expressed.
(§1) Cell culture and retroviral infection. MDA-MB-231, MCF7, HCT116, SW480 RKO, and Phoenix cells (ATCC, Rockville, Md., United States) were cultured in Dulbecco's modified Eagle's medium supplemented with 10% fetal bovine serum and 1% penicillin/streptomycin (Invitrogen, Carlsbad, Calif., United States). Retroviral infection was performed using either single or multiple rounds of infection. Briefly, Phoenix cells were transfected with either pBabe, pBabe-SIRT1H363Y, pSUPERretro, pSUPERretro-SIRT1-RNAi-1-3 (NM_012238 positions 410, 589, and 1091; Oligo Engine, Seattle, Wash., United States) using Lipofectamine 2000 (Invitrogen). After 48 h of transfection, the medium containing retrovirus was collected, filtered, and supplemented with Polybrene prior to infection of target cells (MDA-MB-231, MCF7, or HCT116). Infected cells were either harvested 24-48 hours later or subjected to selection with 2-3 μg/ml puromycin for a week prior to harvest and analysis.
(§2) RNA and protein preparation and analysis. Total RNA was extracted (Invitrogen) according to the manufacturer's instructions and subjected to reverse transcription followed by both quantitative real-time and semi-quantitative polymerase chain reaction. For quantitative real-time analyses, the QuantiTect SYBR Green PCR kit (Qiagen, Valencia, Calif., United States) was used and the amplification conditions consisted of an initial 10-minutes denaturation step at 95° C., followed by 40 cycles of denaturation at 95° C. for 15 s and annealing and extension for 30 seconds and 60 seconds, respectively. A BioRad iCycler was used (BioRad, Hercules, Calif., United States), and for quantitation the comparative cycle threshold (Ct) method was used, normalizing the Ct values for the indicated gene to the Ct values of GAPDH relative to a control sample. For conventional PCR, at least two independent sets of intron-spanning primers were used for the analysis of multiple genes, such as CRBP1, (NM_002899), E-cadherin, (L34545), SFRP1, (BC036503), SFRP2, (BC008666), and Gata-4 (L34357). For Western blots, cells stably expressing RNAi constructs were harvested in 50 mM Tris-HCl, 1% NP-40, 0.25% sodium deoxycholate, 150 mM NaCl, 50 mM sodium fluoride, 1 mM dithiothreitol, 1 mM AEBSF, 1× Complete protease inhibitor cocktail (Roche, Basel, Switzerland). Protein concentrations were measured by BCA (Pierce Biotechnology, Rockford, Ill., United States). […] On the same blot, β-actin (Sigma, St. Louis, Mo., United States) was probed to ensure equal loading.
(§3) The results from experiments performed in RKO cells are shown in FIG. 7 which presents RT-PCR results for SFRP1. […] The expression seemed stronger than for 300 μM splitomycin (Spt) or 20 mM nicotinamide (Nia) when these latter two drugs were used alone or in combination, but not as strong as the expression induced by 1 μM of the DNA demethylating agent, deoxy-aza-cytidine (Aza). […] Experiments were carried out as essentially described above.

[3] = tested on: SFRP1 and 2 genes in human breast cancer cells (line H231); assay: Re-activation of SFRP1 and 2 genes in breast cancer cells (line H231); format: cell-based
Protocol: This has been accomplished for the SFRP1 and 2 genes in human breast cancer cells (line H231) and for SFRP1 in human colon cancer cells (line RKO).
as §3

SIRT1 [4] = assay: Western blot of SIRT1 protein after retroviral shRNA infection; format: cell-based, human
Protocol: as §1, §2

[5] = tested on: SFRP1, SFRP2, E-cadherin, CRBP1 genes in MDA-MB-231 cells; assay: RT-PCR re-expression of silenced tumor suppressor genes in MDA-MB-231 cells; format: cell-based, human; conditions: MDA-MB-231 cells; shRNA retroviral infection; RT-PCR
Protocol: The panels of FIG. 2 are as follows. […] MDA-MB-231 cells were treated with 15 mM NIA or 300 μM SPT for 21 hours, RNA was isolated, and RT-PCR was performed with intron-spanning primers specific for the indicated genes. Control samples in which no reverse transcriptase was added were analyzed separately, and all were negative for amplification of the indicated genes. […] MDA-MB-231 cells were treated with either 50 nM Aza (+), 100 μM SPT (+) or with both Aza and SPT (++), and 34 hours later, RT-PCR was performed for the indicated genes as described in FIG. 2(A). […] MDA-MB-231 cells were treated with either 0, 50, 100, or 120 μM SPT alone for 34 hours, or the treatment was followed by treatment with 300 nM TSA for 3 hours prior to RNA isolation and RT-PCR analysis. […] MDA-MB-231 cells were infected with low titers of virus for shRNA specific for SIRT1. Aza (100 nM) was added 24 hours prior to RNA isolation, and RT-PCR analysis was performed for the genes SFRP 1, SFRP2, and GAPDH as described in FIG. 2(A). […] As shown in the left panel, MDA-MB-231 cells were infected with a control (vec) or mutant SIRT1 virus (HY), and RT-PCR was performed as described in FIG. 2(A). MDA-MB-231 cells were infected with low titers of pBabe or pBabe-SIRT1H363Y retrovirus and subsequently treated with 100 nM Aza for 24 hours or with 300 nM TSA for 3 hours prior to harvest, and RT-PCR was performed.
as §1, §2

[6] = tested on: E-cadherin and MLH1 protein in MDA-MB-231 and RKO cells; assay: Western blot of tumor suppressor protein re-expression; format: cell-based, human; conditions: puromycin selection 3 days
Protocol: The panels in FIG. 1 are as follows. […] Retroviral expression vectors encoding SIRT1 cDNA that produce short hairpin loop RNA targeting either distinct regions of SIRT1 mRNA (RNAi-1, -2, or -3) or a control (ctrl) were used to infect MCF7. Western blot analysis for SIRT1 and β-actin was performed 48 hours after two rounds of infection. […] RNA was isolated from parallel samples analyzed in FIG. 1(A), and RT-PCR was performed with intron-spanning primers specific for the genes SFRP1 and SFRP2. GAPDH was also analyzed as a control. […] Control samples in which no reverse transcriptase was added were analyzed separately, and all were negative for amplification of the indicated genes. […]
RNA and protein preparation and analysis. Total RNA was extracted (Invitrogen) according to the manufacturer's instructions and subjected to reverse transcription followed by both quantitative real-time and semi-quantitative polymerase chain reaction. For quantitative real-time analyses, the QuantiTect SYBR Green PCR kit (Qiagen, Valencia, Calif., United States) was used and the amplification conditions consisted of an initial 10-minutes denaturation step at 95° C., followed by 40 cycles of denaturation at 95° C. for 15 s and annealing and extension for 30 seconds and 60 seconds, respectively. […] Protein concentrations were measured by BCA (Pierce Biotechnology, Rockford, Ill., United States). […]

[7] = tested on: SFRP1 and SFRP2 genes in MCF7 cells; assay: RT-PCR re-expression of silenced tumor suppressor genes in MCF7 cells; format: cell-based, human; conditions: retroviral infection, RT-PCR
Protocol: as §1, §2

[8] = tested on: SFRP1, SFRP2, GATA4 promoter methylation in MDA-MB-231 cells; assay: Promoter DNA methylation by bisulfite sequencing and MSP; format: cell-based, human; conditions: MDA-MB-231 cells stably infected
Excerpt: The panels of FIG. 3 are as follows. […] Parallel samples analyzed in FIG. 1D were subjected to bisulfite sequencing of the SFRP1 promoter from MDA-MB-231 cells stably infected with control vector or RNAi-2 or RNAi-3 retrovirus. Open circles indicate unmethylated cytosines, and closed circles indicate methylated cytosines. Numbers at the bottom show the position of cytosines relative to the transcription start site, which is at position 0, and those with a minus sign (−) are upstream from this start site. The region sequenced encompasses the CpG island in which methylation status correlates with gene expression status. […] From left to right: (−) PCR Ctrl indicates H2O only; (−) BS ctrl indicates bisulfite-treated H20; (+) M ctrl indicates the cell line in which SFRP1 is partially methylated and SFRP2 and GATA4 are fully methylated; and (+) U ctrl indicates the Tera-2 cell line in which each gene is unmethylated. All remaining lanes are for MDA-MB-231. From left to right: Aza indicates 1 μM Aza (24 hours) treatment; Ctrl indicates empty vector infection; RNAi-2 indicates shRNA-2 infection alone; RNAi-3 indicates shRNA-3 infection alone; Aza indicates 1 μM Aza (24 hours treatment of control cells; Ctrl indicates empty vector infection+vehicle; RNAi-2 indicates shRNA-2 infection+5 mM NIA treatment; and RNAi-3 indicates shRNA-3 infection+5 mM NIA treatment.
MSP and bisulfite sequencing. […]

Row | Compound | inhibition of SIRT1 deactylase activity (SIRT1 [1]) | SFRP1 expression compared with 1 μM deoxy-aza-cytidine (Aza) ([2]; RKO cells, RT-PCR) | SFRP1 expression compared with 300 μM splitomycin or 20 mM nicotinamide, alone or in combination ([2]; RKO cells, RT-PCR) | SFRP1 RT-PCR specific band ([2]; RKO cells, doses of 20 and 50 μM, 24 or 48 hours) | transcriptional re-activation of SFRP1 and 2 genes [3] | reduction of SIRT1 protein (knockdown) (SIRT1 [4]; MCF7 cells, Western blot 48 h after two rounds of infection) | reduction of SIRT1 protein (knockdown) (SIRT1 [4]; MDA-MB-231 cells) | reduction of SIRT1 protein (knockdown) (SIRT1 [4]; RKO cells) | gene re-expression of SFRP1, SFRP2 and E-cadherin [5] | gene re-expression of CRB1 and E-cadherin ([2]; RKO cells stably expressing shRNA, treated with 700 μM SPT 24 hours, RT-PCR) | gene re-expression of SFRP1, SFRP2 and MLH1 ([2]; RKO cells, shRNA retroviral infection, RT-PCR) | protein re-expression (E-cadherin, MLH1) by Western blot [6] | gene re-expression of SFRP1 and SFRP2 [7] | SFRP1 promoter methylation profile (bisulfite sequencing) [8]
1 | NC(=O)C1CCCCc2c1[nH]c1ccc(Cl)cc21 (centres unmarked) [Compound 6, 2-Chloro-5,6,7,8,9,10-hexahydro-cyclohepta[b]indole-6-carboxylic acid amide] | potent inhibition | not as strong | stronger | produce the band at both time points | the same effects have been achieved |  |  |  |  |  |  |  |  | 
2 | RNAi-3: shRNA targeting SIRT1 mRNA, sequence CATAGACACGCTGGAACAG, NM_012238 position 1091 |  |  |  |  |  | greatest knockdown | very effective in reducing protein levels | SIRT1 protein reduction | led to gene re-expression | leads to gene re-expression | leads to gene re-expression of SFRP1, SFRP2, and MLH1 | protein re-expression that corresponded with the gene reactivation | led to gene re-expression | without changes in the methylation profile
